In patent US20250002967A1, “METHODS FOR DETECTING MICROORGANISMS BY ADDING A FLUORESCENT DYE DIRECTLY TO THE SOLID GROWTH MEDIUM” (DIAMIDEX, priority 2021, published 2025):

Columns and labels:
[1] = tested on: Aspergillus brasiliensis ATCC® 16404™; experiment: Enumeration of colonies using the method of the invention; assay type: cell-based; details: A. brasiliensis; SDA agar; 35° C.; microcolony count
[2] = tested on: Candida albicans ATCC® 10231™; experiment: as above; assay type: cell-based; details: C. albicans; SDA agar; 35° C.; microcolony count
[3] = tested on: Escherichia coli ATCC® 8739™; experiment: as above; assay type: cell-based; details: E. coli; TSA agar; 35° C.; microcolony count
[4] = tested on: K. pneumoniae ATCC® 13883™; experiment: Enumeration of bacteria implicated in uncomplicated and complicated UTI; assay type: cell-based, Klebsiella pneumoniae; details: black MCE membrane; for Time detection (minimal timing necessary to enumerate microcolonies): 37° C.
[5] = tested on: P. mirabilis ATCC® 29906™; experiment: as above; assay type: cell-based, Proteus mirabilis; details: black MCE membrane
S. aureus ATCC® 6538™ = experiment: as above; assay type: cell-based, Staphylococcus aureus; details: black MCE membrane
E. faecalis ATCC® 19433™ = experiment: as above; assay type: cell-based, Enterococcus faecalis; details: black MCE membrane
E. coli ATCC®8739™ = experiment: as above; assay type: cell-based, Escherichia coli; details: black MCE membrane; for Time detection (minimal timing necessary to enumerate microcolonies): 37° C.

Structure (SMILES) | Counting Scan at 17 h on MCE membrane with fluorochrome [1] | Counting Scan at 17 h on PVDF membrane with fluorochrome [1] | Counting Scan at 17 h on MCE membrane with fluorochrome [2] | Counting Scan at 17 h on PVDF membrane with fluorochrome [2] | Counting Scan at 17 h on MCE membrane with fluorochrome [3] | Counting Scan at 17 h on PVDF membrane with fluorochrome [3] | other results
CC[N+]1=C(C=CC=CC=C2N(CCCCCC(=O)O)c3ccc(S(=O)(=O)O)cc3C2(C)C)C(C)(C)c2cc(S(=O)(=O)[O-])ccc21 [Sulfo-Cy5-Acid] | 25 | 34 | 13 | 13 | 114 | 120 | –
CN(C)CCNc1ccc(O)c2c1C(=O)c1c(O)ccc(NCCN(C)C)c1C2=O [DRAQ5, 1,5-bis (2-(di-methylamino)ethylamino)-4,8-dihydroxyanthracene-9,10-dione] | – | – | – | – | 185 | 162 | –
Cc1c(CC(=O)ON2C(=O)CCC2=O)c(=O)oc2cc(N)c(S(=O)(=O)O)cc12 [AF350-NHS Ester, 7-amino-3-[2-(2,5-dioxopyrrolidin-1-yl)oxy-2-oxoethyl]-4-methyl-2-oxochromene-6-sulfonic acid] | 25 | 19 | 9 | 20 | 109 | 107 | –
CCC(=O)c1ccc2cc(N(C)C)ccc2c1 [Prodan, 6-propionyl-2-dimethyaminonaphthalene] | – | 6 | 11 | 17 | 118 | 126 | –
N=C(N)c1ccc(-c2cc3ccc(C(=N)N)cc3[nH]2)cc1 [DAPI, 4′,6-diamidino-2-phenylindole] | – | – | – | – | – | – | percentage of detected objects compared to standard procedure timing (24 h at 37° C.) ([4]; K. pneumonia, Columbia Blood): (100%); percentage of detected objects compared to standard procedure timing (24 h at 37° C.) ([4]; K. pneumonia, TSA): (100%); Time detection (minimal timing necessary to enumerate microcolonies) ([4]; K. pneumonia, Columbia Blood): 10 h; Time detection (minimal timing necessary to enumerate microcolonies) ([4]; K. pneumonia, TSA): 10 h; percentage of detected objects compared to standard procedure timing (24 h at 37° C.) ([4]; K. pneumoniae, MacConkey): (100%); Time detection (minimal timing necessary to enumerate microcolonies) ([4]; K. pneumoniae, MacConkey): 11 h; percentage of detected objects compared to standard procedure timing (24 h at 37° C.) ([5]; Columbia Blood): (94%); percentage of detected objects compared to standard procedure timing (24 h at 37° C.) ([5]; TSA): (98%); Time detection (minimal timing necessary to enumerate microcolonies) ([5]; TSA, 37° C.): 10 h; percentage of detected objects compared to standard procedure timing (24 h at 37° C.) (S. aureus ATCC® 6538™; Columbia Blood): (100%); percentage of detected objects compared to standard procedure timing (24 h at 37° C.) (S. aureus ATCC® 6538™; TSA): (100%); Time detection (minimal timing necessary to enumerate microcolonies) (S. aureus ATCC® 6538™; TSA, 37° C.): 8 h; percentage of detected objects compared to standard procedure timing (24 h at 37° C.) (E. faecalis ATCC® 19433™; Columbia Blood): (100%); percentage of detected objects compared to standard procedure timing (24 h at 37° C.) (E. faecalis ATCC® 19433™; TSA): (100%); Time detection (minimal timing necessary to enumerate microcolonies) (E. faecalis ATCC® 19433™; TSA, 37° C.): 7 h; percentage of detected objects compared to standard procedure timing (24 h at 37° C.) (E. coli ATCC®8739™; Columbia Blood): (100%); percentage of detected objects compared to standard procedure timing (24 h at 37° C.) (E. coli ATCC®8739™; MacConkey): (98%); Time detection (minimal timing necessary to enumerate microcolonies) (E. coli ATCC®8739™; MacConkey): 10 h; percentage of detected objects compared to standard procedure timing (24 h at 37° C.) (E. coli ATCC®8739™; TSA): (100%); Time detection (minimal timing necessary to enumerate microcolonies) (E. coli ATCC®8739™; TSA): 6 h
Cc1ccc2n1[B-](F)(F)[N+]1=C(CCCCCCCCCCCC(=O)O)C=CC1=C2 [BODIPY 500/510, 12-(2,2-difluoro-12-methyl-1-aza-3-azonia-2-boranuidatricyclo[7.3.0.03,7]dodeca-3,5,7,9,11-pentaen-4-yl)dodecanoic acid] | – | – | – | – | – | 112 | –
